Earlier results as cited in patent US11654108B1, “Sennoside medicated chews” (MEDICATED CHEWS, LLC, priority 2022, dated 2023).

[1] = after oral administration of sennosides

sennosides
metabolites excreted in urine [1]: 3-6%
sennosides excreted in feces as polymers (polyquinones) [1]: 90%
unchanged sennosides, sennidins, rheinanthrone and rhein excreted in feces [1]: 2-6%
absorption in the upper gut / splitting by human digestive enzymes (upper gut, human digestive enzymes): neither absorbed in the upper gut nor split by human digestive enzymes
